Measured values taken from US6949557B2, “Hydroanthracene based compounds as anticancer agents” (Dabur Research Foundation, priority 2003, dated 2005).
In brackets after ≈: the same amount, converted by molar mass.

What was measured:
Assay type in all cases: cell-based, human
MCF7 = assay: three day MTT cytotoxicity assay, MCF7; settings: 72 hours incubation, MCF7 breast cells
Method: (§1) A number of the anthracene based compounds were tested for cytotoxicity against 12 human tumor cell lines. Briefly, a three day MTT cytotoxicity assay was performed, which is based on the principle of uptake of MTT (3-(4,5-dimethylthiazol-2-yl)-2,5-diphenyl tetrazolium bromide), a tetrazolium salt, by the metabolically active cells where it is metabolized by active mitochondria into a blue colored formazan product that is read spectrophotometrically. MTT was dissolved in phosphate buffered saline with a pH of 7.4 to obtain an MTT concentration of 5 mg/ml; the resulting mixture was filtered through a 0.22 micron filter to sterilize and remove a small amount of insoluble residue. For each type of tumor cell, 10,000 to 15,000 cells were seeded in a 96-well culture plate and incubated with the individual anthracene based compounds in a CO2 incubator for a total of 72 hours. Control cells not treated with the anthracene based compounds were similarly incubated. The assay was terminated by adding 100 ug (20 ul) of MTT to each well, then incubating for additional one hour, and finally adding 50 ul of 10% SDS-0.01N HCl to each well to lyse the cells and dissolve formazan. After incubating for one hour, the plate was read spectrophotometrically at 540 nm and the percentage of cytotoxicity calculated using the following formula:
(§2) Cytotoxicity percentage=100×[1−(X/R1)],
(§3) where X=(absorbance of treated sample at 540 nm)−(absorbance of blank at 540 nm)
(§4) R1=absorbance of control sample at 540 nm.
(§5) The IC50 Values of the cytotoxicity defined as the concentration at which 50% of the cells are killed in vitro was calculated for each cell line treated with each of the anthracene based compounds.

L132 = assay: three day MTT cytotoxicity assay, L132; settings: 72 hours incubation, L132 lung cells
Method: as §1, §2, §3, §4, §5

HT29 = assay: three day MTT cytotoxicity assay, HT29; settings: 72 hours incubation, HT29 colon cells
Method: as §1, §2, §3, §4, §5

MiaPaca2 = assay: three day MTT cytotoxicity assay, MiaPaca2; settings: 72 hours incubation, MiaPaca2 pancreatic cells
Method: as §1, §2, §3, §4, §5

Hep2 = assay: three day MTT cytotoxicity assay, Hep2; settings: 72 hours incubation, Hep2 larynx cells
Method: as §1, §2, §3, §4, §5

MOLT4 = assay: three day MTT cytotoxicity assay, MOLT4; settings: 72 hours incubation, MOLT4 leukemia cells
Method: as §1, §2, §3, §4, §5

PA1 = assay: three day MTT cytotoxicity assay, PA1; settings: 72 hours incubation, PA1 ovarian cells
Method: as §1, §2, §3, §4, §5

DU145 = assay: three day MTT cytotoxicity assay, DU145; settings: 72 hours incubation, DU145 prostate cells
Method: as §1, §2, §3, §4, §5

U87MG = assay: three day MTT cytotoxicity assay, U87MG; settings: 72 hours incubation, U87MG glioblastoma cells
Method: as §1, §2, §3, §4, §5

KB = assay: three day MTT cytotoxicity assay, KB; settings: 72 hours incubation, KB oral cells
Method: as §1, §2, §3, §4, §5

ECV304 = assay: three day MTT cytotoxicity assay, ECV304; settings: 72 hours incubation, ECV304 endothelial cells
Method: as §1, §2, §3, §4, §5

PTC = assay: three day MTT cytotoxicity assay, PTC; settings: 72 hours incubation, PTC colon cells
Method: as §1, §2, §3, §4, §5

Structure (SMILES) | ED50 MCF7 Breast (MCF7) [µg/mL] | ED50 L132 Lung (L132) [µg/mL] | ED50 HT29 Colon (HT29) [µg/mL] | ED50 MiaPaca2 Pancreatic (MiaPaca2) [µg/mL] | ED50 Hep2 Larynx (Hep2) [µg/mL] | ED50 MOLT4 Leukemia (MOLT4) [µg/mL] | ED50 PA1 Ovarian (PA1) [µg/mL] | ED50 DU145 Prostate (DU145) [µg/mL] | ED50 U87MG Glioblastoma (U87MG) [µg/mL] | ED50 KB Oral (KB) [µg/mL] | ED50 ECV304 Endothelial (ECV304) [µg/mL] | ED50 PTC Colon (PTC) [µg/mL]
CC1=CCC2C(C)(C)C3=C(CC2(C)C1OC(=O)C(O)C(N)c1ccccc1)C(=O)C=CC3=O (stereo not shown) [Compound 24, 3-Amino-2-hydroxy-3-phenyl-propionic acid 2,9a,10,10-tetramethyl-5,8-dioxo-1,4,4a,5,8,9,9a,10-octahydro-anthracen-1-yl ester] | >100 | >100 | 6 (≈ 13.3 µM) | >100 | 14 (≈ 31.1 µM) | 7 (≈ 15.6 µM) | 8 (≈ 17.8 µM) | 5 (≈ 11.1 µM) | 5 (≈ 11.1 µM) | 6.6 (≈ 14.7 µM) | 3 (≈ 6.67 µM) | 
CC1=CCC2C(C)(C)C3=C(CC2(C)C1=O)C(=O)C=CC3=O (stereo not shown) [Compound 19, 6,9,9,10a-Tetramethyl-8a,9,10,10a-tetrahydro-8H-anthracene-1,4,5-trione] | 18 (≈ 63.3 µM) | 6 (≈ 21.1 µM) | 33 (≈ 116 µM) | 80 (≈ 281 µM) | 26 (≈ 91.4 µM) | 4 (≈ 14.1 µM) | 15 (≈ 52.8 µM) | 15 (≈ 52.8 µM) | 16 (≈ 56.3 µM) | 62 (≈ 218 µM) | 6 (≈ 21.1 µM) | 40 (≈ 141 µM)
COc1ccc(OC)c2c1C[C@]1(C)C(OC(=O)[C@H](O)[C@@H](N)c3ccccc3)C(C)=CC[C@H]1C2(C)C (stereo partly shown) [Compound 11, 3-Amino-2-hydroxy-3-phenyl-propionic acid 5,8-dimethoxy-2,9a,10,10-tetramethyl-1,4,4a,9,9a,10-hexahydro-anthrcen-1-yl ester] | 8 (≈ 16.7 µM) | 21 (≈ 43.8 µM) | 27 (≈ 56.3 µM) | 7 (≈ 14.6 µM) | 16 (≈ 33.4 µM) | <1 | 4 (≈ 8.34 µM) | 10 (≈ 20.8 µM) | 10 (≈ 20.8 µM) | 18 (≈ 37.5 µM) | 2 (≈ 4.17 µM) | 
CC1=CCC2C(CC3=C(C(=O)C=CC3=O)C2(C)C)C1OC(=O)C1OC(C)(C)N(C(=O)OC(C)(C)C)C1c1ccccc1 (stereo not shown) [Compound 25, 2,2-Dimethyl-4-phenyl-oxazolidine-3,5-dicarboxylic acid 3-tert-butyl ester 5-(2,10,10-trimethyl-5,8-dioxo-1,4,4a,5,8,9,9a,10-octahydro-anthracen-1-yl) ester] | 16 (≈ 27.8 µM) | 4 (≈ 6.95 µM) | 35 (≈ 60.8 µM) | 35 (≈ 60.8 µM) | 11 (≈ 19.1 µM) | <1 | 8 (≈ 13.9 µM) | 32 (≈ 55.6 µM) | 24 (≈ 41.7 µM) | 35 (≈ 60.8 µM) | 5 (≈ 8.69 µM) | 8 (≈ 13.9 µM)
CC1=CCC2C(CC3=C(C(=O)C=CC3=O)C2(C)C)C1OC(=O)C(O)C(N)c1ccccc1 (stereo not shown) [Compound 26, 3-Amino-2-hydroxy-3-phenyl-propionic acid 2,10,10-trimethyl-5,8-dioxo-1,4,4a,5,8,9,9a,10-octahydro-anthracen-1-yl ester] | 32 (≈ 73.5 µM) | 10 (≈ 23 µM) | 6.5 (≈ 14.9 µM) | 35 (≈ 80.4 µM) | 20 (≈ 45.9 µM) | 5.0 (≈ 11.5 µM) | 19 (≈ 43.6 µM) | 26 (≈ 59.7 µM) | 24 (≈ 55.1 µM) | 31 (≈ 71.2 µM) | 29 (≈ 66.6 µM) | 5.0 (≈ 11.5 µM)
